The values below are quoted from earlier work in patent US6475530B1, “Methods and compositions for producing weight loss” (priority 2000, dated 2002).

The conditions of data set [1]: single dose of 300 mg. per day; healthy young adults.
The conditions of data set [2]: mice; substance by itself.
The subject of data set [3] is cyclooxygenase. To be noted: single large dose.
Data set [4] concerns free fatty acids.
Data set [5] concerns growth hormone. To be noted: healthy postmenopausal women; 9 grams per day.

As for `CC(=O)Oc1ccccc1C(=O)O` [aspirin, acetylsalicylic acid], the “time to gastric erosion” value in data set [1] was 5 to 7 days. Further, the weight loss result in data set [2] is “no weight loss”. Besides, the “time for prostaglandin levels to return to baseline” value in data set [3] was at most 6 h.

Take `O=C(O)c1cccnc1` [nicotinic acid]: the “effect on free fatty acids” value in data set [4] (given in the daytime) is on record as “reduces free fatty acids temporarily, but then there is a rebound effect”. Also, the “duration of reduction in free fatty acids” value in data set [4] (given nocturnally, constant infusion from 8:00 PM to 6 AM, without rebound effect) was 24 h.

In the case of `N=C(N)NCCC[C@H](N)C(=O)O` [L-arginine], the “increase in growth hormone” value in data set [5] is 72%.
